From patent publication US20250114345A1, “COMPOUNDS AND COMPOSITIONS AS CBP/P300 DEGRADERS AND USES THEREOF” (Oncopia Therapeutics, Inc. d/b/a/ SK Life Science Labs, priority 2023, published 2025)

Target: T1, p300 (Homo sapiens, UniProt Q09472)
T1 construct: host or cells: A549 P300 HiBit cells
Assay: P300 degradation, HiBit technology in A549 P300 HiBit cells (2 h)
Assay type: cell-based
Details: 2 hrs post treatment; for Dmax: A549, A549 P300 HiBit cells; for DC50: A549 P300 HiBit cells
Procedure, shortened: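 HiBiT knock-in A549 cells received compound in serial dilution at 37 °C under 5% CO2. Remaining tagged protein was quantified by lytic HiBiT luminescence after 10 min shaking at room temperature, yielding potency and maximal degradation.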

T1 sequence (Q09472 whole entry): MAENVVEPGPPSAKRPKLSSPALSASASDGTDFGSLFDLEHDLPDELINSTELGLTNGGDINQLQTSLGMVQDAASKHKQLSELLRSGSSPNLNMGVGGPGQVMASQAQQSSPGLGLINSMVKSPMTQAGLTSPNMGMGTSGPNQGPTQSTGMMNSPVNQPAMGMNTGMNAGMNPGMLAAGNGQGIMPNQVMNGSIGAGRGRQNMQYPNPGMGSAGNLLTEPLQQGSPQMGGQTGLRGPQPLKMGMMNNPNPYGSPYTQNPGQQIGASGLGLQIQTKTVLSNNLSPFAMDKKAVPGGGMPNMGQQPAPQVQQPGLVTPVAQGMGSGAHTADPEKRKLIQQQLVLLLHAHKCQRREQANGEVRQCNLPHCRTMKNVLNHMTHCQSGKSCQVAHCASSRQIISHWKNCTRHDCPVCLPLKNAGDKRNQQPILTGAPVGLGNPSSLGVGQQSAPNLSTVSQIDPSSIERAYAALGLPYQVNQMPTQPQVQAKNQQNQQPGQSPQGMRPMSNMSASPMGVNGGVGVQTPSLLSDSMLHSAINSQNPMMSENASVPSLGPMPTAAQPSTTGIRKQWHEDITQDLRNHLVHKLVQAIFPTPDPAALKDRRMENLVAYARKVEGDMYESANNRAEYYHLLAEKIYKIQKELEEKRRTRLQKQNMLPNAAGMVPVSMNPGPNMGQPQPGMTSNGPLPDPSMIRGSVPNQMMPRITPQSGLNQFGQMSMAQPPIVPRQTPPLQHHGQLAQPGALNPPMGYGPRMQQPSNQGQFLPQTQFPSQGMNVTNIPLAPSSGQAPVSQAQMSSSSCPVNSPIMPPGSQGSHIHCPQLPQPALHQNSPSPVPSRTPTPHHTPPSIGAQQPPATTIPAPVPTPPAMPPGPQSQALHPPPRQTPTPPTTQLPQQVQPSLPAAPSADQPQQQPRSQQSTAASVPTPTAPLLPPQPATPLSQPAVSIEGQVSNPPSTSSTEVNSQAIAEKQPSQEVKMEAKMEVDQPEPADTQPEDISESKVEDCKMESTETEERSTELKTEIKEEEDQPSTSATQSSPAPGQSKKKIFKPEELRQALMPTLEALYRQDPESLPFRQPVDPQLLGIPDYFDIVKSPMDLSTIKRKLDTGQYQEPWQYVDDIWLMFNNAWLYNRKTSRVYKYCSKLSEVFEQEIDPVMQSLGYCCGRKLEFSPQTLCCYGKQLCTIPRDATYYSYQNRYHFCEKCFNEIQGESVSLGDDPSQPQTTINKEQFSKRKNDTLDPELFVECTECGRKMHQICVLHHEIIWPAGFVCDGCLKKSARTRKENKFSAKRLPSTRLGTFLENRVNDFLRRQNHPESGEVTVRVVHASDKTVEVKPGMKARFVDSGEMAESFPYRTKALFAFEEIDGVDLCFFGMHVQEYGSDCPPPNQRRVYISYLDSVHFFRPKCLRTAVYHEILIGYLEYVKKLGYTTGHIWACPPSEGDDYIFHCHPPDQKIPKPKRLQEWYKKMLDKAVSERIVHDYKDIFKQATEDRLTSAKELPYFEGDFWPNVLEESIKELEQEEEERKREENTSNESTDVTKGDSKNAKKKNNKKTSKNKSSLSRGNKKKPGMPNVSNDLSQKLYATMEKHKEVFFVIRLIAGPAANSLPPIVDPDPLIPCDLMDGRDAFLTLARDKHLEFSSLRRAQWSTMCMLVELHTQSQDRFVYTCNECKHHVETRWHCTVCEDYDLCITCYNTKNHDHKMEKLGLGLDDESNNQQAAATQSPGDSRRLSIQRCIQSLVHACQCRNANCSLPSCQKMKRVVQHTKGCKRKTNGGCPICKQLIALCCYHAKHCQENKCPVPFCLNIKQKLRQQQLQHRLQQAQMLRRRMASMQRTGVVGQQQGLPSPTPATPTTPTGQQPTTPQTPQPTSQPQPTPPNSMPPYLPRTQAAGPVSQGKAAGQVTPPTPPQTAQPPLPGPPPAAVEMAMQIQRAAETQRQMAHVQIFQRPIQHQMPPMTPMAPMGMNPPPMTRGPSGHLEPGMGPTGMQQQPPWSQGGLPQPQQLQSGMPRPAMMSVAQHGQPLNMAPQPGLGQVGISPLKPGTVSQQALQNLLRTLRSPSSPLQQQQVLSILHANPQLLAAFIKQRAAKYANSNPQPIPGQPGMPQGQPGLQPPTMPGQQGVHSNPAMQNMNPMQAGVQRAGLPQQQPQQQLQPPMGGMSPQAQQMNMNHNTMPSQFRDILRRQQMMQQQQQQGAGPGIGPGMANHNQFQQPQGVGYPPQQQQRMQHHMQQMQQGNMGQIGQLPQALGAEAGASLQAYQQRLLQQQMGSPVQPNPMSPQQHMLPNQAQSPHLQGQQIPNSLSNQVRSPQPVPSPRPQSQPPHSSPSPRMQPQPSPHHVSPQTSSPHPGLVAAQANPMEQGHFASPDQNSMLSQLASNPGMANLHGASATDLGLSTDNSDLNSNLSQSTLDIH

Dmax [%] | DC50 [nM] | Structure (SMILES)
> 80 | 1 to 9.9 | CCc1cc(N2CCCc3cc(-c4ccc(C(=O)NCC#Cc5ccc6occ(C7CCC(=O)NC7=O)c6c5)nc4)c(F)cc32)c2cc(C)c(=O)n(C)c2c1 (centres unmarked) [Example B133, N-(3-(3-(2,6-dioxopiperidin-3-yl)benzofuran-5-yl)prop-2-yn-1-yl)-5-(7′-ethyl-7-fluoro-1′,3′-dimethyl-2′-oxo-1′,2′,3,4-tetrahydro-2H-[1,5′-biquinolin]-6-yl)picolinamide]
> 80 | 10 to 99 | Cc1cc2c(N3CCCc4cc(-c5ccc(C(=O)NCC#Cc6ccc7occ(C8CCC(=O)NC8=O)c7c6)nc5)c(F)cc43)cc(C(C)C)cc2n(C)c1=O (centres unmarked) [Example B134, N-(3-(3-(2,6-dioxopiperidin-3-yl)benzofuran-5-yl)prop-2-yn-1-yl)-5-(7-fluoro-7′-isopropyl-1′,3′-dimethyl-2′-oxo-1′,2′,3,4-tetrahydro-2H-[1,5′-biquinolin]-6-yl)picolinamide]
< 20 | > 1000 | Cc1cc(-c2ncc(N(C)c3cc(C4CCOCC4)cc4c3cc(C)c(=O)n4C)nn2)cnc1C(=O)NCC#Cc1ccc2occ(C3CCC(=O)NC3=O)c2c1 (centres unmarked) [Example B135, 5-(6-((1,3-dimethyl-2-oxo-7-(tetrahydro-2H-pyran-4-yl)-1,2-dihydroquinolin-5-yl) (methyl)amino)-1,2,4-triazin-3-yl)-N-(3-(3-(2,6-dioxopiperidin-3-yl)benzofuran-5-yl)prop-2-yn-1-yl)-3-methylpicolinamide]
60 to 79 | 1 to 9.9 | Cc1cc2c(N3CCCc4cc(-c5ccc(C(=O)NCC#Cc6ccc7occ(C8CCC(=O)NC8=O)c7c6)nc5)ccc43)cc(C3CCOCC3)cc2n(C)c1=O (centres unmarked) [Example B140, 5-(1′,3′-dimethyl-2′-oxo-7′-(tetrahydro-2H-pyran-4-yl)-1′,2′,3,4-tetrahydro-2H-[1,5′-biquinolin]-6-yl)-N-(3-(3-(2,6-dioxopiperidin-3-yl)benzofuran-5-yl)prop-2-yn-1-yl) picolinamide]
> 80 | 1 to 9.9 | Cc1cc2c(N3CCCc4cc(-c5ccc(C(=O)NCC#Cc6ccc7occ(C8CCC(=O)NC8=O)c7c6)nc5)c(F)cc43)cc(C3CCOCC3)cc2n(C)c1=O (centres unmarked) [Example B143, N-(3-(3-(2,6-dioxopiperidin-3-yl)benzofuran-5-yl)prop-2-yn-1-yl)-5-(7-fluoro-1′,3′-dimethyl-2′-oxo-7′-(tetrahydro-2H-pyran-4-yl)-1′,2′,3,4-tetrahydro-2H-[1,5′-biquinolin]-6-yl) picolinamide]
> 80 | 1 to 9.9 | CCc1cc(-c2ncc3c(n2)CCCN3c2cc(C3CCOCC3)cc3c2cc(C)c(=O)n3C)cnc1C(=O)NCC#Cc1ccc2occ(C3CCC(=O)NC3=O)c2c1 (centres unmarked) [Example B144, 5-(5-(1,3-dimethyl-2-oxo-7-(tetrahydro-2H-pyran-4-yl)-1,2-dihydroquinolin-5-yl)-5,6,7,8-tetrahydropyrido[3,2-d]pyrimidin-2-yl)-N-(3-(3-(2,6-dioxopiperidin-3-yl)benzofuran-5-yl)prop-2-yn-1-yl)-3-ethylpicolinamide]
> 80 | 1 to 9.9 | Cc1cc2c(N3CCOc4cc(-c5ccc(C(=O)NCC#Cc6ccc7occ(C8CCC(=O)NC8=O)c7c6)nc5)c(F)cc43)cccc2n(C)c1=O (centres unmarked) [Example B145, 5-(4-(1,3-dimethyl-2-oxo-1,2-dihydroquinolin-5-yl)-6-fluoro-3,4-dihydro-2H-benzo[b][1,4]oxazin-7-yl)-N-(3-(3-(2,6-dioxopiperidin-3-yl)benzofuran-5-yl)prop-2-yn-1-yl) picolinamide]
> 80 | 1 to 9.9 | COC1CN(c2cc3c(cc(C)c(=O)n3C)c(-c3cccc4cc(-c5ccc(C(=O)NCC#Cc6ccc7occ(C8CCC(=O)NC8=O)c7c6)nc5)ncc34)n2)C1 (centres unmarked) [Example B146, N-(3-(3-(2,6-dioxopiperidin-3-yl)benzofuran-5-yl)prop-2-yn-1-yl)-5-(8-(7-(3-methoxyazetidin-1-yl)-1,3-dimethyl-2-oxo-1,2-dihydro-1,6-naphthyridin-5-yl)isoquinolin-3-yl) picolinamide]
> 80 | 1 to 9.9 | COc1cc(N2CCOc3cc(-c4ccc(C(=O)NCC#Cc5ccc6occ(C7CCC(=O)NC7=O)c6c5)nc4)c(F)cc32)c2cc(C)c(=O)n(C)c2c1 (centres unmarked) [Example B147, N-(3-(3-(2,6-dioxopiperidin-3-yl)benzofuran-5-yl)prop-2-yn-1-yl)-5-(6-fluoro-4-(7-methoxy-1,3-dimethyl-2-oxo-1,2-dihydro-quinolin-5-yl)-3,4-dihydro-2H-benzo[b][1,4]oxazin-7-yl)picolinamide]
> 80 | 1 to 9.9 | CCc1cc(N2CCOc3cc(-c4ccc(C(=O)NCC#Cc5ccc6occ(C7CCC(=O)NC7=O)c6c5)nc4)c(F)cc32)c2cc(C)c(=O)n(C)c2c1 (centres unmarked) [Example B149, N-(3-(3-(2,6-dioxopiperidin-3-yl)benzofuran-5-yl)prop-2-yn-1-yl)-5-(4-(7-ethyl-1,3-dimethyl-2-oxo-1,2-dihydroquinolin-5-yl)-6-fluoro-3,4-dihydro-2H-benzo[b][1,4]oxazin-7-yl)picolinamide]
60 to 79 | 1 to 9.9 | Cc1cc2c(N3CCCc4nc(-c5ccc(C(=O)NCC#Cc6ccc7occ(C8CCC(=O)NC8=O)c7c6)nc5)ncc43)cc(C3CCN(C(=O)C4CCOCC4)CC3)cc2n(C)c1=O (centres unmarked) [Example B150, 5-(5-(1,3-dimethyl-2-oxo-7-(1-(tetrahydro-2H-pyran-4-carbonyl)piperidin-4-yl)-1,2-dihydro-quinolin-5-yl)-5,6,7,8-tetrahydropyrido[3,2-d]pyrimidin-2-yl)-N-(3-(3-(2,6-dioxopiperidin-3-yl)benzofuran-5-yl)prop-2-yn-1-yl) picolinamide]
> 80 | 1 to 9.9 | Cc1cc(N2CCCc3nc(-c4ccc(C(=O)NCC#Cc5ccc6occ(C7CCC(=O)NC7=O)c6c5)nc4)ncc32)c2cc(C)c(=O)n(C)c2c1 (centres unmarked) [Example B151, N-(3-(3-(2,6-dioxopiperidin-3-yl)benzofuran-5-yl)prop-2-yn-1-yl)-5-(5-(1,3,7-trimethyl-2-oxo-1,2-dihydroquinolin-5-yl)-5,6,7,8-tetrahydro-pyrido[3,2-d]pyrimidin-2-yl)picolinamide]
> 80 | 1 to 9.9 | CCc1cc(N(C)c2ccn(-c3cnc(C(=O)NCC#Cc4cccc(NC5CCC(=O)NC5=O)c4)c(C)c3)c(=O)c2)c2cc(C)c(=O)n(C)c2c1 (centres unmarked) [Example B152, N-(3-(3-((2,6-dioxopiperidin-3-yl)amino)phenyl)prop-2-yn-1-yl)-4-((7-ethyl-1,3-dimethyl-2-oxo-1,2-dihydroquinolin-5-yl) (methyl)amino)-5′-methyl-2-oxo-2H-[1,3′-bipyridine]-6′-carboxamide]
> 80 | 1 to 9.9 | Cc1cc2c(N3CCCc4nc(-c5cnc(C(=O)NCC#Cc6ccc7occ(C8CCC(=O)NC8=O)c7c6)c(Cl)c5)ncc43)cccc2n(C)c1=O (centres unmarked) [Example B155, 3-chloro-5-(5-(1,3-dimethyl-2-oxo-1,2-dihydroquinolin-5-yl)-5,6,7,8-tetrahydro-pyrido[3,2-d]pyrimidin-2-yl)-N-(3-(3-(2,6-dioxopiperidin-3-yl)benzofuran-5-yl)prop-2-yn-1-yl)picolinamide]
> 80 | 10 to 99 | Cc1cc2c(N3CCCc4nc(-c5ccc(C(=O)NCC#Cc6cc7c(C8CCC(=O)NC8=O)cccc7o6)nc5)ncc43)cc(C3CCC(F)(F)CC3)nc2n(C)c1=O (centres unmarked) [Example B158, 5-(5-(2-(4,4-difluorocyclohexyl)-6,8-dimethyl-7-oxo-7,8-dihydro-1,8-naphthyridin-4-yl)-5,6,7,8-tetrahydropyrido[3,2-d]pyrimidin-2-yl)-N-(3-(4-(2,6-dioxopiperidin-3-yl)benzofuran-2-yl)prop-2-yn-1-yl)picolinamide]
20 to 39 | 1 to 9.9 | Cc1cc2c(N3CCCc4nc(-c5ccc(C(=O)NCC#Cc6cc7c(C8CCC(=O)NC8=O)cccn7n6)nc5)ncc43)cc(C3CCOCC3)cc2n(C)c1=O (centres unmarked) [Example B170, 5-(5-(1,3-dimethyl-2-oxo-7-(tetrahydro-2H-pyran-4-yl)-1,2-dihydroquinolin-5-yl)-5,6,7,8-tetrahydropyrido[3,2-d]pyrimidin-2-yl)-N-(3-(4-(2,6-dioxopiperidin-3-yl)pyrazolo[1,5-a]pyridin-2-yl)prop-2-yn-1-yl)picolinamide]
> 80 | 1 to 9.9 | Cc1cc2c(N3CCCc4nc(-c5ccc(C(=O)NCC#Cc6cc7c(C8CCC(=O)NC8=O)cccc7o6)nc5)ncc43)cc(C3CC3)cc2n(C)c1=O (centres unmarked) [Example B171, 5-(5-(7-cyclopropyl-1,3-dimethyl-2-oxo-1,2-dihydroquinolin-5-yl)-5,6,7,8-tetrahydropyrido [3,2-d]pyrimidin-2-yl)-N-(3-(4-(2,6-dioxo-piperidin-3-yl)benzofuran-2-yl)prop-2-yn-1-yl)picolinamide]
> 80 | 10 to 99 | Cc1cc2c(N3CCCc4nc(-c5ccc(C(=O)NCC#Cc6cc7c(C8CCC(=O)NC8=O)cccc7o6)nc5)ncc43)nc(N3CC4CC4C3)cc2n(C)c1=O (centres unmarked) [Example B172, 5-(5-(7-(3-azabicyclo[3.1.0]hexan-3-yl)-1,3-dimethyl-2-oxo-1,2-dihydro-1,6-naphthyridin-5-yl)-5,6,7,8-tetrahydropyrido[3,2-d]pyrimidin-2-yl)-N-(3-(4-(2,6-dioxopiperidin-3-yl)benzofuran-2-yl)prop-2-yn-1-yl)picolinamide]

Structure (SMILES) | Dmax [%] | DC50 [nM]
Cc1cc2c(N3CCCc4nc(-c5ccc(C(=O)NCC#Cc6ccc7occ(C8CCC(=O)NC8=O)c7c6)nc5)ncc43)nc(N3CC[Si](C)(C)CC3)cc2n(C)c1=O (centres unmarked) [Example B139, 5-(5-(7-(4,4-dimethyl-1,4-azasilinan-1-yl)-1,3-dimethyl-2-oxo-1,2-dihydro-1,6-naphthyridin-5-yl)-5,6,7,8-tetrahydropyrido[3,2-d]pyrimidin-2-yl)-N-(3-(3-(2,6-dioxopiperidin-3-yl)benzofuran-5-yl)prop-2-yn-1-yl)picolinamide] | 60 to 79 | 100 to 999
